Experiment: 12-week placebo-controlled study: red blood cell fatty acid concentrations, ratios and proportions (GC/FID)
Type: in vivo, human
Conditions: for AA red blood cell concentration, change from baseline (LS mean (SE)) / AA red blood cell concentration, end-of-treatment (mean) / DHA red blood cell concentration, change from baseline (LS mean (SE)) / DHA red blood cell concentration, end-of-treatment (mean) / Linoleic red blood cell concentration, change from baseline (LS mean (SE)) / Linoleic red blood cell concentration, end-of-treatment (mean) / Oleic red blood cell concentration, change from baseline (LS mean (SE)) / Oleic red blood cell concentration, end-of-treatment (mean) / Palmitic red blood cell concentration, change from baseline (LS mean (SE)) / Palmitic red blood cell concentration, end-of-treatment (mean) / Proportion of monounsaturated fatty acids to total fatty acids in RBCs, change from baseline (LS mean (SE)) / Proportion of monounsaturated fatty acids to total fatty acids in RBCs, end-of-treatment (mean (SD)) / Proportion of saturated fatty acids to total fatty acids in RBCs, change from baseline (LS mean (SE)) / Proportion of saturated fatty acids to total fatty acids in RBCs, end-of-treatment (mean (SD)) / Proportion of total omega-3 fatty acids to total fatty acids in RBCs, change from baseline (LS mean (SE)) / Proportion of total omega-3 fatty acids to total fatty acids in RBCs, end-of-treatment (mean (SD)) / Proportion of total omega-6 fatty acids to total fatty acids in RBCs, change from baseline (LS mean (SE)) / Proportion of total omega-6 fatty acids to total fatty acids in RBCs, end-of-treatment (mean (SD)) / Ratio of AA/EPA in red blood cells, change from baseline (LS mean (SE)) / Ratio of AA/EPA in red blood cells, end-of-treatment (mean) / Ratio of n-3/n-6 FA in red blood cells, change from baseline (LS mean (SE)) / Ratio of n-3/n-6 FA in red blood cells, end-of-treatment (mean) / Stearic red blood cell concentration, change from baseline (LS mean (SE)) / Stearic red blood cell concentration, end-of-treatment (mean): week 12
Method: A multi-center, placebo-controlled randomized, double-blind, 12-week study with an open-label extension is performed to evaluate the efficacy and safety of AMR101 in patients with fasting triglyceride levels ≧500 mg/dL. The primary objective of the study is to determine the efficacy of AMR101 2 g daily and 4 g daily, compared to placebo, in lowering fasting TG levels in patients with fasting TG levels ≧500 mg/dL and ≦1500 mg/dL (≧5.65 mmol/L and ≦16.94 mmol/L).
Eligible patients will be randomly assigned at Visit 4 (Week 0) to receive orally AMR101 2 g daily, AMR101 4 g daily, or placebo for the 12-week double-blind treatment period. AMR101 is provided in 1 g liquid-filled, oblong, gelatin capsules. The matching placebo capsule is filled with light liquid paraffin and contains 0 g of AMR101. During the double-blind treatment period, patients will take 2 capsules (AMR101 or matching placebo) in the morning and 2 in the evening for a total of 4 capsules per day. Patients in the AMR101 2 g/day treatment group will receive 1 AMR101 1 g capsule and 1 matching placebo capsule in the morning and in the evening. Patients in the AMR101 4 g/day treatment group will receive 2 AMR101 1 g capsules in the morning and evening.
Lipids were extracted from plasma and RBC suspensions and converted into fatty acid methyl esters for analysis using a standard validated gas chromatography/flame ionization detection method. Fatty acid parameters were compared between EPA treatment groups and placebo using an ANCOVA model with treatment, gender, type of statin therapy, and presence of diabetes as factors, and the baseline parameter value as a covariate. LSMs, SEs, and 2-tailed 95% confidence intervals for each treatment group and for each comparison were determined.

[1] = 2 g/day vs placebo, week 12, P <0.0001
[2] = 4 g/day vs placebo, week 12, P <0.0001

CC/C=C\C/C=C\C/C=C\C/C=C\C/C=C\CCCC(=O)OCC [IPE, Icosapent ethyl]
Dose dependence of EPA concentration in RBCs (in words) (2 g/day or 4 g/day, 12 weeks): significantly increased EPA concentrations in a linear, dose-dependent fashion | AA red blood cell concentration, mean placebo-adjusted percent change from baseline (2 g/day vs placebo, week 12, P 0.0008): −8.0% | Proportion of total omega-6 fatty acids to total fatty acids in RBCs, mean placebo-adjusted percent change from baseline (2 g/day vs placebo, week 12, P 0.0014): −13.2% | Proportion of monounsaturated fatty acids to total fatty acids in RBCs, mean placebo-adjusted percent change from baseline (2 g/day vs placebo, week 12, P 0.0435): −3.1% | Proportion of total omega-3 fatty acids to total fatty acids in RBCs, mean placebo-adjusted percent change from baseline (2 g/day vs placebo, week 12, P 0.1183): 23.8% | Linoleic red blood cell concentration, mean placebo-adjusted percent change from baseline (2 g/day vs placebo, week 12, P 0.1278): −4.7% | Proportion of saturated fatty acids to total fatty acids in RBCs, mean placebo-adjusted percent change from baseline (2 g/day vs placebo, week 12, P 0.3278): 1.1% | Oleic red blood cell concentration, mean placebo-adjusted percent change from baseline (2 g/day vs placebo, week 12, P 0.3736): −2.1% | DHA red blood cell concentration, mean placebo-adjusted percent change from baseline (2 g/day vs placebo, week 12, P 0.5859): −1.8% | Stearic red blood cell concentration, mean placebo-adjusted percent change from baseline (2 g/day vs placebo, week 12, P 0.5886): 1.1% | Palmitic red blood cell concentration, mean placebo-adjusted percent change from baseline (2 g/day vs placebo, week 12, P 0.9465): −0.1% | Ratio of AA/EPA in red blood cells, mean placebo-adjusted percent change from baseline [1]: −91.1% | Ratio of n-3/n-6 FA in red blood cells, mean placebo-adjusted percent change from baseline [1]: 65.5% | AA red blood cell concentration, change from baseline (LS mean (SE)) (2 g/day): −20.9 (3.2) | AA red blood cell concentration, end-of-treatment (mean) (2 g/day): 160.3 | DHA red blood cell concentration, change from baseline (LS mean (SE)) (2 g/day): −7.3 (1.5) | DHA red blood cell concentration, end-of-treatment (mean) (2 g/day): 51.5 | Linoleic red blood cell concentration, change from baseline (LS mean (SE)) (2 g/day): −10.7 (4.7) | Linoleic red blood cell concentration, end-of-treatment (mean) (2 g/day): 169.6 | Oleic red blood cell concentration, change from baseline (LS mean (SE)) (2 g/day): −1.4 (4.1) | Oleic red blood cell concentration, end-of-treatment (mean) (2 g/day): 213.0 | Palmitic red blood cell concentration, change from baseline (LS mean (SE)) (2 g/day): −2.9 (5.4) | Palmitic red blood cell concentration, end-of-treatment (mean) (2 g/day): 341.7 | Proportion of monounsaturated fatty acids to total fatty acids in RBCs, change from baseline (LS mean (SE)) (2 g/day): −0.1 (0.3) mol % | Proportion of monounsaturated fatty acids to total fatty acids in RBCs, end-of-treatment (mean (SD)) (2 g/day): 20.0 (1.9) mol % | Proportion of saturated fatty acids to total fatty acids in RBCs, change from baseline (LS mean (SE)) (2 g/day): 0.3 (0.4) mol % | Proportion of saturated fatty acids to total fatty acids in RBCs, end-of-treatment (mean (SD)) (2 g/day): 44.4 (3.0) mol % | Proportion of total omega-3 fatty acids to total fatty acids in RBCs, change from baseline (LS mean (SE)) (2 g/day): 2.6 (0.3) mol % | Proportion of total omega-3 fatty acids to total fatty acids in RBCs, end-of-treatment (mean (SD)) (2 g/day): 8.7 (2.2) mol % | Proportion of total omega-6 fatty acids to total fatty acids in RBCs, change from baseline (LS mean (SE)) (2 g/day): −2.9 (0.4) mol % | Proportion of total omega-6 fatty acids to total fatty acids in RBCs, end-of-treatment (mean (SD)) (2 g/day): 27.0 (3.3) mol % | Ratio of AA/EPA in red blood cells, change from baseline (LS mean (SE)) (2 g/day): −17.7 (0.9) | Ratio of AA/EPA in red blood cells, end-of-treatment (mean) (2 g/day): 5.2 | Ratio of n-3/n-6 FA in red blood cells, change from baseline (LS mean (SE)) (2 g/day): 0.12 (0.010) | Ratio of n-3/n-6 FA in red blood cells, end-of-treatment (mean) (2 g/day): 0.33 | Stearic red blood cell concentration, change from baseline (LS mean (SE)) (2 g/day): −4.7 (2.9) | Stearic red blood cell concentration, end-of-treatment (mean) (2 g/day): 179.0 | Proportion of total omega-3 fatty acids to total fatty acids in RBCs, mean placebo-adjusted percent change from baseline (4 g/day vs placebo, week 12, P 0.0008): 53.4% | Proportion of monounsaturated fatty acids to total fatty acids in RBCs, mean placebo-adjusted percent change from baseline (4 g/day vs placebo, week 12, P 0.0154): −3.9% | Proportion of saturated fatty acids to total fatty acids in RBCs, mean placebo-adjusted percent change from baseline (4 g/day vs placebo, week 12, P 0.1145): 1.9% | DHA red blood cell concentration, mean placebo-adjusted percent change from baseline (4 g/day vs placebo, week 12, P 0.1216): −5.2% | Oleic red blood cell concentration, mean placebo-adjusted percent change from baseline (4 g/day vs placebo, week 12, P 0.1325): −3.7% | Palmitic red blood cell concentration, mean placebo-adjusted percent change from baseline (4 g/day vs placebo, week 12, P 0.7427): −0.7% | Stearic red blood cell concentration, mean placebo-adjusted percent change from baseline (4 g/day vs placebo, week 12, P 0.7565): −0.7% | AA red blood cell concentration, mean placebo-adjusted percent change from baseline [2]: −15.7% | Linoleic red blood cell concentration, mean placebo-adjusted percent change from baseline [2]: −13.0% | Proportion of total omega-6 fatty acids to total fatty acids in RBCs, mean placebo-adjusted percent change from baseline [2]: −17.3% | Ratio of AA/EPA in red blood cells, mean placebo-adjusted percent change from baseline [2]: −102% | Ratio of n-3/n-6 FA in red blood cells, mean placebo-adjusted percent change from baseline [2]: 106.9% | AA red blood cell concentration, change from baseline (LS mean (SE)) (4 g/day): −36.2 (3.4) | AA red blood cell concentration, end-of-treatment (mean) (4 g/day): 148.8 | DHA red blood cell concentration, change from baseline (LS mean (SE)) (4 g/day): −9.7 (1.6) | DHA red blood cell concentration, end-of-treatment (mean) (4 g/day): 51.7 | Linoleic red blood cell concentration, change from baseline (LS mean (SE)) (4 g/day): −25.0 (4.9) | Linoleic red blood cell concentration, end-of-treatment (mean) (4 g/day): 164.7 | Oleic red blood cell concentration, change from baseline (LS mean (SE)) (4 g/day): −5.6 (4.1) | Oleic red blood cell concentration, end-of-treatment (mean) (4 g/day): 208.3 | Palmitic red blood cell concentration, change from baseline (LS mean (SE)) (4 g/day): −5.8 (5.7) | Palmitic red blood cell concentration, end-of-treatment (mean) (4 g/day): 340.6 | Proportion of monounsaturated fatty acids to total fatty acids in RBCs, change from baseline (LS mean (SE)) (4 g/day): −0.2 (0.3) mol % | Proportion of monounsaturated fatty acids to total fatty acids in RBCs, end-of-treatment (mean (SD)) (4 g/day): 19.5 (1.9) mol % | Proportion of saturated fatty acids to total fatty acids in RBCs, change from baseline (LS mean (SE)) (4 g/day): 0.6 (0.4) mol % | Proportion of saturated fatty acids to total fatty acids in RBCs, end-of-treatment (mean (SD)) (4 g/day): 44.5 (2.5) mol % | Proportion of total omega-3 fatty acids to total fatty acids in RBCs, change from baseline (LS mean (SE)) (4 g/day): 4.1 (0.3) mol % | Proportion of total omega-3 fatty acids to total fatty acids in RBCs, end-of-treatment (mean (SD)) (4 g/day): 10.4 (2.3) mol % | Proportion of total omega-6 fatty acids to total fatty acids in RBCs, change from baseline (LS mean (SE)) (4 g/day): −4.7 (0.5) mol % | Proportion of total omega-6 fatty acids to total fatty acids in RBCs, end-of-treatment (mean (SD)) (4 g/day): 25.5 (2.9) mol % | Ratio of AA/EPA in red blood cells, change from baseline (LS mean (SE)) (4 g/day): −19.9 (1.0) | Ratio of AA/EPA in red blood cells, end-of-treatment (mean) (4 g/day): 3.1 | Ratio of n-3/n-6 FA in red blood cells, change from baseline (LS mean (SE)) (4 g/day): 0.20 (0.011) | Ratio of n-3/n-6 FA in red blood cells, end-of-treatment (mean) (4 g/day): 0.42 | Stearic red blood cell concentration, change from baseline (LS mean (SE)) (4 g/day): −8.2 (3.1) | Stearic red blood cell concentration, end-of-treatment (mean) (4 g/day): 178.1

Reference: patent US20140213648A1, “METHODS OF INCREASING EPA BLOOD LEVELS” (priority 2012, published 2014)
